Assay: Human HepG2 cell viability assay in 384 well format
Type: toxicity, cell-based
Parameters: dose 125 nL, time 70.5 hour; concentration not given beside the values
Conditions: HepG2 cells, read-out: Inhibition

Compound | cytotoxicity at 70.5 h [%]
Cc1n[nH]c(C)c1CC(=O)NCc1ccccc1Cl | 1.58
COCCCNS(=O)(=O)c1ccc(N2CCCCS2(=O)=O)cc1 | -9.62
COc1ccc(C2=NOC(C(=O)N3CCCc4ccccc43)C2)cc1 (stereo not drawn) | 8.49
Cc1ccc(NC(=O)Nc2c[nH]c(=O)[nH]c2=O)c(Cl)c1 | -8.13
CCOCCCNC(=O)C(NC(=O)Cc1cccs1)c1ccc(C)cc1 (stereo not drawn) | -2.89
CCOC(=O)CCn1cnc2onc(-c3cc(OC)ccc3Cl)c2c1=O | -11
Cn1nnc(NCc2ccc(OCc3ccc(Cl)cc3)cc2)n1 | -4.01
CCOc1cc(CNc2nnn(C)n2)ccc1OCc1ccc(Cl)cc1 | -10.2
CCCn1nnc(NCc2ccccc2OCc2ccc(Cl)cc2)n1 | -7.74
CCOC(=O)CCn1cnc2onc(-c3ccc(OC)cc3)c2c1=O | 35.2
CN1CC=C(c2noc(CCC(=O)N3CCc4ccccc43)n2)CC1 | -26.2
CCOC(=O)CNC(=O)NCc1cc(C)n(-c2ccc(OC)cc2)c1C | -22.5
COc1ccc(Cl)cc1Nc1nc(N)c(C(C)=O)s1 | -19.7
COc1ccc(Nc2nc(N)c(C(C)=O)s2)cc1OC | -12.7
CCCC(=O)n1ccn(S(=O)(=O)c2ccc(C)cc2)c1=O | -14.8
Cc1ccc(S(=O)(=O)n2ccn(C(=O)COc3ccccc3)c2=O)cc1 | -9.68
CCOC(=O)CNC(=O)NCc1cccn1Cc1ccccc1F | -2.5
CCN1CCN(C(=O)CCn2cccc2)CC1 | -12.8
COCCCNC(=O)Nc1ncc(-c2cccc(OC)c2)n1CCOC | -17.4
COCCn1c(-c2cccc(OC)c2)cnc1NC(=O)NCC(C)C | -18.3
Cc1ccc2snc(C(=O)N3CCN(C(=O)NCCC(C)C)CC3)c2c1 | -6.08
COCCNC(=O)N1CCN(C(=O)c2nsc3ccc(C)cc23)CC1 | -17.5
CN1CCN(S(=O)(=O)c2cccc(F)c2)c2ccccc21 | 11.9

Compound | cytotoxicity at 70.5 h [%]
COC(=O)c1cccc(C(=O)NCc2ccc(C)o2)n1 | -18.5
CCN(CC)c1nc2ccsc2c(=O)n1CCC(=O)NCc1ccco1 | 12.3
COc1ccccc1NC(=O)N1CCCC1c1ccco1 (stereo not drawn) | -0.874
Cc1cc(=O)n2nc(CNc3cc(Cl)ccc3C)nc2[nH]1 | -9.92
CCC(=O)NC(c1cccnc1)c1cc(C)ccc1C (stereo not drawn) | -12.3
Cc1ccccc1NC(=O)Nc1c[nH]c(=O)[nH]c1=O | -9.84
CC1CCN(c2ccc(NC(=O)CCn3cccn3)cc2)CC1 | -9.93
COc1ccc(NC(=O)c2cnc(N3CCN(C)CC3)nc2C)cc1 | -6.31
CCC1CN(CC(=O)NCCN2CCCCCC2)c2ccccc2S1 (stereo not drawn) | -1.59
CCC1CN(CC(=O)NCCN2CCCC2)c2ccccc2S1 (stereo not drawn) | -2.98
COc1cccc(CN2CCCCCC2c2cccc(F)c2)c1O (stereo not drawn) | -1.29
Cc1nn(C)c2c(=O)n(CC(=O)NCCN3CCCCCC3)ccc12 | -4.19
O=C(Cn1ccc2sccc2c1=O)NC1CCCCC1 | -9.58
CCCNC(=O)CCC(=O)n1nc(C)c2ccccc21 | 1.02
CCCNC(=O)C1CCCN(c2ccc3nncn3n2)C1 (stereo not drawn) | -4.72
CCN(CC)CCNC(=O)c1ccc(-n2ccc3ccccc32)s1 | 1.6
O=C(NCCCN1CCCC1=O)c1ccc(-n2ccc3ccccc32)s1 | 1.6
CCOc1nc2cnccc2n(CC(=O)NCCc2ccccc2)c1=O | 28.7
COc1ccc(NC(=O)c2nc3ccccc3n(C)c2=O)cc1OC | 29.1
COc1cc(NC(=O)c2nc3ccccc3n(C)c2=O)cc(OC)c1 | -14.2
COc1ccc(C2CCCCCN2Cc2cn(C)nc2C)cc1 (stereo not drawn) | -3.41
Cc1nn(C)cc1CN1CCCCCC1c1ccccc1Cl (stereo not drawn) | 17.7
O=C(C1CCN(S(=O)(=O)N2CCCC2)CC1)N1CCC2(CC1)OCCO2 | -7.18

Compound | cytotoxicity at 70.5 h [%]
CCOC(=O)C(C)NC(=O)N1CCN(c2nc3ccccc3n2C)CC1 (stereo not drawn) | -2.33
CCS(=O)(=O)N1CCc2ccc(NC(=O)NC(C)(C)C)cc21 | -13.6
CCS(=O)(=O)N1CCc2ccc(NC(=O)Nc3cccc(F)c3)cc21 | 33
CCn1nc(C)c2ccn(CC(=O)NC(C)C)c(=O)c21 | -2.74
COCCN1CC2(CCN(Cc3ccco3)CC2)c2ccccc21 | 4.26
COCC(=O)NCC1Cn2nnc(-c3ccoc3)c2CO1 (stereo not drawn) | -6.95
COc1ccc(C(=O)N2CCO[C@H]3[C@@H](OCC4CC4)CC[C@@H]32)cc1F | -2.05
CS(=O)(=O)N1C[C@@H](C(=O)Nc2cnccn2)C[C@H]2OCC[C@H]21 | -7.68
CCN(CC)C(=O)c1nc2c(s1)CCN(C(=O)CCC(=O)OC)CC2 | 3.92
COC(=O)CCC(=O)N1CCc2nc(C(=O)N3CCCCC3)sc2CC1 | -1.33
CCCS(=O)(=O)N1CCc2nc(N3CCOCC3)nc(N(C)C)c2C1 | 26.5
O=C(CC1CC1)N1CCCn2c(nnc2Cn2cccc2)C1 | -4.38
COc1cc(N2C[C@H]3CN(CCN4CCCC4)C(=O)[C@H]3C2)ncn1 | -7.36
O=C(Nc1cnccn1)[C@H]1C[C@H]2OCC[C@H]2N(c2ncc(F)cn2)C1 | -11.1
CCn1cc2c(n1)C(COCC1CC1)CN(C(=O)c1cc(C)on1)C2 (stereo not drawn) | -10.4
O=C([C@H]1COC[C@H]2CN(CC3CCC3)C[C@H]21)N1CCOCC1 | -6.01
O=C([C@@H]1COC[C@H]2CN(CC3CCCC3)C[C@H]21)N1CCOCC1 | -7.37
COc1ccc(C(=O)N2CCO[C@H]3[C@H](OCC4CC4)CC[C@@H]32)cc1F | -12.7
O=C(Cc1cccs1)NCC1Cn2nnc(-c3ccoc3)c2CO1 (stereo not drawn) | -5.7
CCS(=O)(=O)N1CCc2nc(N3CCOCC3)nc(N(C)C)c2CC1 | -7.6
CCOCC1CC2(CCN(C(=O)CC3=CCCCC3)CC2)CO1 (stereo not drawn) | 1.88
CC(=O)NCC(=O)N1Cc2cc(C#N)ccc2C1c1cnco1 (stereo not drawn) | 25.2
COc1ncnc2c1CCN(C(=O)Cc1cccc(F)c1)CC2 | -3.34

Compound | cytotoxicity at 70.5 h [%]
CC(C)C(NC(=O)Nc1ccccn1)c1cccs1 (stereo not drawn) | 28.6
O=C1CN(c2ccc(CNC(=O)NCCO)cc2)CCN1 | -5.73
CC1CCN(CCNC(=O)c2ccn(-c3ccccc3)n2)CC1 | -6.14
COc1ccc(-n2ccc(C(=O)NCCN3CCC(C)CC3)n2)cc1 | -5.24
COc1ccc(-n2ccc(C(=O)NCCN3CCCCC3)n2)cc1 | -4.18
Cn1ccc(CN2CCC(OCc3ccccc3)CC2)cc1=O | 21.5
CN(C)C(=O)c1cccc(CN2CCOC(Cn3cccn3)C2)c1 (stereo not drawn) | -12.9
Cc1cnn(CC2CN(Cc3cccc(C(N)=O)c3)CCO2)c1 (stereo not drawn) | -9.19
Cc1cnn(CC2CN(Cc3ccc(C(N)=O)cc3)CCO2)c1 (stereo not drawn) | -7.11
Cc1cnn(CC2CN(Cc3cccc(OC(C)C)c3)CCO2)c1 (stereo not drawn) | -5.62
Cc1cnn(CC2CN(Cc3cccnc3)CCO2)c1 (stereo not drawn) | -6.35
Cc1cc(C[S+]([O-])CC(=O)NCc2ccccc2)no1 (stereo not drawn) | -5.28
Cc1ccc(-c2nc(CNC3CCc4ncnn4C3)co2)cc1 (stereo not drawn) | -9.15
O=C(Cc1cccc(O)c1)NCCCNC(=O)c1cccc(F)c1 | -5.97
CC(C)c1nc(CN2CCCC2Cn2cccn2)no1 (stereo not drawn) | -2.93
CCc1csc(C2CCCN(C(=O)c3ccco3)C2)n1 (stereo not drawn) | 17.1
COC(=O)c1cccc(S(=O)(=O)NC(=O)COC2CCCC2)c1 | -11.9
Cc1cc2n(n1)CC(CNCc1ccc(OCC3CC3)nc1)CN2 (stereo not drawn) | 7.09
CCN(C(C)=O)c1nc(CN2CCCC2Cn2cncn2)cs1 (stereo not drawn) | 17.8
Cc1cnn(C2CN(Cc3nc(-c4ccccn4)no3)C2)c1 | 12.3
CN(Cc1noc(C(C)(C)C)n1)C1CCCN(c2cccnn2)C1 (stereo not drawn) | 44.8
CN(Cc1noc(C2CC2)n1)C1CCCN(c2cccnn2)C1 (stereo not drawn) | 0.945
CCC1CCCCN1Cc1ncc(C(C)(C)C)o1 (stereo not drawn) | -7.2

Compound | cytotoxicity at 70.5 h [%]
O=C(c1ccc2nncn2c1)N1CCCC(n2ccnc2)C1 (stereo not drawn) | -14.2
CCn1cnnc1CNC(=O)N1CCN(c2cccc(C)c2)CC1 | -7.02
Cc1cc(C)n(CC2CN(CC(=O)NC3CCCCC3)CCO2)n1 (stereo not drawn) | -9.27
Cc1cc(C)n(CC2CN(CCC(=O)NC3CCCCC3)CCO2)n1 (stereo not drawn) | -9.5
Cc1cccc(-c2noc(CN3CC(n4cccn4)C3)n2)c1 | -8.11
CCCN(CC(=O)N1CCNCC1)C(=O)c1cccc(Cl)c1 | -15.8
CC(C)OCCCN(CC(=O)N1CCNCC1)C(=O)c1ccc(F)cc1 | 19.8
CC[C@H]1N(CC2CCOCC2)CCC[C@]12CCC(=O)N2 | -3.56
Cc1noc(C)c1CN1CCC2(CC1)CC(Oc1cccnc1)CO2 (stereo not drawn) | 1.43
Cc1nnc(N2C[C@@H]3CCCO[C@@H]3[C@H](N3CCCC3=O)C2)s1 | -9.55
O=C(C1CCCO1)N1CCCn2c(nnc2Cn2ccnc2)C1 (stereo not drawn) | -7.67
Cc1ccc(CN2CCC3(CCC3NS(=O)(=O)c3ccccc3)CC2)o1 (stereo not drawn) | 8.23
N#Cc1ccc(N2CCC3(CC2)COCCN3Cc2cccnc2)cc1 | -4.74
O=C(NC1CCCC1)N1CC[C@H]2[C@H]1CCN2c1nncs1 | 36.5
COc1ccccc1OCC(=O)N1C[C@@H]2CN(C)CCO[C@@H]2C1 | 32.3
COCCN1CCO[C@@H]2CN(C(=O)COc3ccc(C)cc3)C[C@@H]2C1 | -8.74
COc1ncccc1CN1CCC2(CCCN2S(C)(=O)=O)CC1 | -7.14
COc1ncccc1CN1CCC2(CC1)COCCN2C | -8.7
Cc1noc(C)c1CN1CCC2(CC1)CC(Oc1cccnc1)C2 | -9.29
Cc1cnc(N2CCN3C[C@H](OCc4cccc(C)n4)C[C@H]3C2)nc1 | 0.481
N#Cc1ccc(N2CC3(CCN(c4nccs4)C3)C2)nc1 | 5.37

— ChEMBL document CHEMBL3507680, “University of Dundee, Gates Library screen for HepG2 cell viability”
